According to the NIST ThermoML archive (doi:10.1021/acs.jced.7b00099):
Values joined by “and” are separate entries in the source; they are usually repeats but may differ in a detail not shown here. Identical values can stand only once. ± gives the expanded uncertainty stated by the source.

Settings: Liquid, Closed cell (Static) method

| Compound | vapor or sublimation pressure (353.15 K) | vapor or sublimation pressure (363.15 K) | vapor or sublimation pressure (373.15 K) | vapor or sublimation pressure (383.15 K) | vapor or sublimation pressure (393.15 K) | vapor or sublimation pressure (403.15 K) | vapor or sublimation pressure (413.15 K) | vapor or sublimation pressure (423.15 K) | vapor or sublimation pressure (433.15 K) | vapor or sublimation pressure (443.15 K) | vapor or sublimation pressure (453.15 K) | further results |
| --- | --- | --- | --- | --- | --- | --- | --- | --- | --- | --- | --- | --- |
| CCCCCCCCCCCC(=O)OC [methyl dodecanoate] | 0.0644 ± 0.0024 kPa | 0.1217 ± 0.0043 kPa | 0.2212 ± 0.0072 kPa | 0.388 ± 0.012 kPa | 0.657 ± 0.009 kPa | 1.08 ± 0.014 kPa | 1.728 ± 0.011 kPa | 2.694 ± 0.015 kPa | 4.104 ± 0.019 kPa |  |  |  |
| CCCCCCCCCCCCCCCC(=O)OC [methyl hexadecanoate] |  |  | 0.0158 ± 0.0008 kPa | 0.0294 ± 0.0012 kPa | 0.0535 ± 0.002 kPa | 0.095 ± 0.003 kPa | 0.1644 ± 0.0055 kPa | 0.2789 ± 0.009 kPa | 0.4635 ± 0.015 kPa | 0.756 ± 0.01 kPa | 1.21 ± 0.016 kPa |  |
| CCCCCCCCCCCCCC(=O)OC [methyl tetradecanoate] | 0.0133 ± 0.0007 kPa | 0.0267 ± 0.0011 kPa | 0.0516 ± 0.0019 kPa | 0.0959 ± 0.0034 kPa | 0.1723 ± 0.0057 kPa | 0.3003 ± 0.0096 kPa | 0.509 ± 0.016 kPa | 0.839 ± 0.011 kPa | 1.35 ± 0.01 kPa | 2.123 ± 0.013 kPa | 3.27 ± 0.016 kPa |  |
| CCCCCCCCCCCCCC [tetradecane] | 0.1355 ± 0.0046 kPa and 0.1354 ± 0.0046 kPa | 0.2517 ± 0.0081 kPa | 0.4469 ± 0.014 kPa and 0.4472 ± 0.014 kPa | 0.762 ± 0.01 kPa and 0.763 ± 0.01 kPa | 1.254 ± 0.016 kPa and 1.255 ± 0.016 kPa | 1.998 ± 0.013 kPa | 3.09 ± 0.016 kPa and 3.086 ± 0.016 kPa | 4.652 ± 0.021 kPa and 4.642 ± 0.021 kPa | 6.836 ± 0.029 kPa and 6.812 ± 0.028 kPa | 9.776 ± 0.042 kPa | 13.75 ± 0.054 kPa | vapor or sublimation pressure (351.75 K): 0.124 ± 0.004 kPa; vapor or sublimation pressure (361.8 K): 0.232 ± 0.008 kPa; vapor or sublimation pressure (361.89 K): 0.232 ± 0.008 kPa; vapor or sublimation pressure (371.91 K): 0.422 ± 0.013 kPa; vapor or sublimation pressure (381.93 K): 0.717 ± 0.009 kPa; vapor or sublimation pressure (382.07 K): 0.716 ± 0.009 kPa; vapor or sublimation pressure (391.95 K): 1.186 ± 0.015 kPa; vapor or sublimation pressure (392 K): 1.186 ± 0.015 kPa; vapor or sublimation pressure (402.74 K): 1.947 ± 0.013 kPa; vapor or sublimation pressure (412.69 K): 3.029 ± 0.016 kPa; vapor or sublimation pressure (422.55 K): 4.545 ± 0.021 kPa; vapor or sublimation pressure (432.39 K): 6.661 ± 0.028 kPa; vapor or sublimation pressure (442.49 K): 9.461 ± 0.041 kPa; vapor or sublimation pressure (452.49 K): 13.46 ± 0.053 kPa |
